The test system of one series is P. falciparum K1 strain. As to the kind of experiment: P. falciparum growth inhibition (K1 strain). The class given is cell-based. The conditions noted are these: Plasmodium falciparum, read-out: IC50 in K1 strain (μM) ± SEM.
For series [1], the system named is Plasmodium berghei CTRP-GFP. As to the kind of experiment: Gametocyte to ookinete transition inhibition. The class given is cell-based. The conditions noted are these: up to a concentration of 2 μM. The procedure:
Eight days before ookinete production, 200 μL of Plasmodium berghei CTRP-GFP (which expresses GFP when reaching ookinete stage) (Vlachou, D. et al., 2004) in cryopreservation solution (RBC pellet:RPMI:30% glycerol in water, 1:1:2) was administered i.p. to a BALB/c mouse. Four days later this mouse was the donor to infect i.p. with 5×10^7 parasitized red blood cells in 200 μL of PBS three mice that one hour before the infection had been pretreated i.p. with phenylhydrazine (120 μL of a 10 mg/mL solution in PBS).
For ookinete production, up to 1 mL of blood carrying gametocytes was collected from each animal by intracardiac puncture and diluted in 30 mL of ookinete medium: 10.4 g/L of RPMI supplemented with […], 0.05% w/v hypoxanthine, 0.02% w/v xanthurenic acid, 50 U/mL penicillin and 50 μg/mL streptomycin (Invitrogen), 20% heat-inactivated fetal bovine serum (FBS, Invitrogen), 25 mM HEPES, pH 7.4.
24 h later, samples were diluted 1:100 in PBS and analyzed in a LSRFortessa™ flow cytometer (BD Biosciences) set up with the 5 lasers, 20 parameters standard configuration. The GFP positive cell population was selected and counted using 488 nm laser excitation and a 525/40 nm emission collection filter. BD FACSDiva software (BD biosciences) was used in data collection, and Flowing Software 2.5.1 (Turku Centre for Biotechnology) was used for analysis.

Series [2] in a line: In vivo toxicity assay in mice. Set-up: species or system BALB/c mice. Particulars: male mice. The procedure:
BALB/c female and male mice (Janvier Laboratories) were maintained with unlimited access to food and water under standard environmental conditions (20-24° C. and 12/12 h light/dark cycle). […] First, the lowest dose was intravenously injected to one female and one male mice. An oxygen stream of 4% isoflurane was used to anesthetize the mice, which were then maintained during the whole procedure (less than 3 minutes) with 2.5% isoflurane.
After the administration, mice were observed and different parameters related to their behavior (lethargy, motility alterations, seizures, coma, automutilation, aggressiveness, vocalizations, stereotyped movements) and physical conditions (pain, respiratory disturbances, tachycardia or bradycardia, dehydration, hair loss, body weight loss, dermatitis, bad hygiene, pruritus, tearing) were followed. If after 48 h no deleterious effects were observed, the following dose was administered to two other male and female mice.

The subject of series [3] is P. falciparum NF54-gexp02-Tom strain gametocytes. As to the kind of experiment: microbe, parasite or virus in culture. The series is classed as cell-based. Particulars: Plasmodium falciparum, NF54, 48 h, read-out: IC50 on early gametocytes. The procedure: Cultures of the P. falciparum NF54-gexp02-Tom strain (developed and authenticated by Portugaliza, H. P. et al., 2019 and kindly provided by Prof. Alfred Cortes), were maintained in standard conditions in RPMI medium supplemented with 0.5% Albumax II and 2 mM choline, synchronized in ring stages with sorbitol lysis, and diluted to 2% parasitemia. To trigger sexual conversion, choline was removed from the medium and cultures were maintained in the same conditions for 48 h after synchronization (cycle 0). In the next cycle (cycle 1), parasites were treated with 50 mM N-acetylglucosamine (GlcNac) in order to kill asexual parasites, and maintained in RPMI supplemented with 10% human serum. Medium was refreshed daily and GlcNac was kept during 4 days.
Controls of untreated parasites as well as of parasites treated with a lethal dose of chloroquine were prepared. Gametocytemia was monitored daily by light microscopy until the majority of parasites (˜90%) could be identified as stage V gametocytes. At that point, Giemsa smears of each well were prepared and mature gametocytes were manually counted (10,000 cells were counted for each replica by two investigators blinded to group assignment). […] Afterwards, the culture was treated for 48 h with the drugs and the gametocytemia determined as above.

What is called IC50 is the midpoint of a concentration-inhibition curve.

“Also recorded” adds a separate entry of the source.

On to `COc1cc2c(cc1OC)C(=O)C(CC1CCN(CNc3c4c(nc5cc(Cl)ccc35)CCCC4)CC1)C2` (stereo not shown) [DONE3TCI], for which the half-maximal inhibitory concentration (IC50) in the series with P. falciparum K1 strain worked out at 0.36 ± 0.07 µM; in series [3], 0.285 ± 0.056 µM. Besides, in series [1], the “effect on ookinete development” value is given as “did not have an observable effect; also recorded: does not show any observable effect”. For the same compound, in series [2], the “dose at which toxicity starts being observed” value turned out to be 3 mg/kg.
